Reference: US8519128B2, “Pyripyropene derivatives having an ACAT2-inhibiting activity” (The Kitasato Institute, priority 2007, dated 2013)
Read-outs that look alike come from different tables or passages of the source.

Target: T1, ACAT 2 (Mus musculus, UniProt O88908)
T1 construct: The source of ACAT 2 enzyme used was a membrane fraction derived from mouse liver microsome; from tissue; host or cells: mouse liver (microsome fraction)
T1 sequence (O88908 1-525): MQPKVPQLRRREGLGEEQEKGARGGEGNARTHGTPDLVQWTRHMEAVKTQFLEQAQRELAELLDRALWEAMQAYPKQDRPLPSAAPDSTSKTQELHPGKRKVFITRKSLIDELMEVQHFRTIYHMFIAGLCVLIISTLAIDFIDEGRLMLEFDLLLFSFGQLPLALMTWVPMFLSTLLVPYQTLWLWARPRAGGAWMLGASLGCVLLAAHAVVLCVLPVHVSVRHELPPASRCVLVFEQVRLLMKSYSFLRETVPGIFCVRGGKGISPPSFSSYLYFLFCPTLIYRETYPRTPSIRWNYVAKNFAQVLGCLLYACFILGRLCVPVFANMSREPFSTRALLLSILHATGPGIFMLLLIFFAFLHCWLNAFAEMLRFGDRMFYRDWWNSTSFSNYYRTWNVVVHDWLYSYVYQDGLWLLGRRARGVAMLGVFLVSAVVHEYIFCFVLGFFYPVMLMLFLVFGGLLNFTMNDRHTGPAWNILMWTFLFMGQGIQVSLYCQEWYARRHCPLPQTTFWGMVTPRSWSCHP
Assay: ACAT-inhibiting activity, mouse liver microsome membrane fraction, [14C]oleoyl-CoA
Assay type: biochemical
Settings: for Specific activity: (inhibitory activity of test compound)/(inhibitory activity of pyripyropene A): relative to pyripyropene A
Experimental: The source of ACAT 2 enzyme used was a membrane fraction derived from mouse liver microsome. Mouse liver was homogenized in buffer solution A (50 mM Tris-HCl (pH 7.8), 1 mM ethylenediamine tetraacetate, and 1 mM phenylmethanesulfonyl fluoride) using a homogenizer of the Potter type (Tokyo-RIKO). The homogenate was centrifuged at 12000×g, and the supernatant was ultracentrifuged at 100000×g. The sediment was taken as a microsome fraction, and this fraction was adjusted to have a protein concentration of 5 mg/ml using buffer solution A.
The chloroform layer was evaporated to dryness and was used to spot a thin layer chromatography plate (silica gel plate, Merck, 0.5 mm thickness). Elution for separation was carried out using a solvent of hexane/diethyl ether/acetic acid (70:30:1, v/v).

[1] = mouse liver microsome, 5 minutes at 37° C.

Row | SMILES | IC50 [µM] | Specific activity: (inhibitory activity of test compound)/(inhibitory activity of pyripyropene A) | IC50 [1] [µM]
1 | CC(=O)OCC1(C)C2C[C@H](OC(=O)Cn3cnnn3)[C@@]3(C)Oc4cc(-c5cccnc5)oc(=O)c4[C@H](O)C3[C@@]2(C)CC[C@@H]1OC(C)=O (stereo partly drawn) [PRD 092, 7-O-2-(1H-tetrazol-1-yl)acetyl-7-deacetylpyripyropene A] | 0.1 to 1 | + (5 > specific activity > 1) | 
2 | CC(=O)OCC1(C)C2C[C@H](OC(=O)c3ccccc3)[C@@]3(C)Oc4cc(-c5cccnc5)oc(=O)c4[C@H](O)C3[C@@]2(C)CC[C@@H]1OC(C)=O (stereo partly drawn) [PRD 027, 7-benzoyl-7-deacetylpyripyropene A] |  | +++ (50 > specific activity > 10) | 0.01 to 0.1
3 | CC(=O)OCC1(C)C2C[C@H](OC(=O)C3CCCC3)[C@@]3(C)Oc4cc(-c5cccnc5)oc(=O)c4[C@H](O)C3[C@@]2(C)CC[C@@H]1OC(C)=O (stereo partly drawn) [PRD 075, 7-O-cyclopentanecarboxyl-7-deacetylpyripyropene A] | 0.01 to 0.1 | ++ (10 > specific activity > 5) | 
4 | CC(=O)OCC1(C)C(OC(C)=O)CC[C@@]2(C)C1C[C@H](OC(=O)c1ccc(C(N)=O)cc1)[C@@]1(C)Oc3cc(-c4cccnc4)oc(=O)c3[C@H](O)C21 (stereo partly drawn) [PRD 111] |  | + (5 > specific activity > 1) | 0.1 to 1
5 | CC(=O)OCC1(C)C2C[C@H](OC(=O)c3cccc(Br)c3)[C@@]3(C)Oc4cc(-c5cccnc5)oc(=O)c4[C@H](O)C3[C@@]2(C)CC[C@@H]1OC(C)=O (stereo partly drawn) [PRD 026, 7-m-bromobenzoyl-7-deacetylpyripyropene A] |  | ++++ (100 > specific activity > 50) | < 0.01
6 | CC(=O)OCC1(C)C2C[C@H](OC(=O)c3ccc(F)cc3)[C@@]3(C)Oc4cc(-c5cccnc5)oc(=O)c4[C@H](O)C3[C@@]2(C)CC[C@@H]1OC(C)=O (stereo partly drawn) [PRD 020, 7-p-fluorobenzoyl-7-deacetylpyripyropene A] |  | +++ (50 > specific activity > 10) | < 0.01
7 | CC(=O)OCC1(C)C2C[C@H](OC(=O)c3ccc(C#N)c(F)c3)[C@@]3(C)Oc4cc(-c5cccnc5)oc(=O)c4[C@H](O)C3[C@@]2(C)CC[C@@H]1OC(C)=O (stereo partly drawn) [PRD 112, 7-O-p-cyano-m-fluorobenzoyl-7-deacetylpyripyropene A] |  | +++ (50 > specific activity > 10) | 
8 | CC(=O)OCC1(C)C2C[C@H](OC(=O)c3ccc(-c4ccccc4)cc3)[C@@]3(C)Oc4cc(-c5cccnc5)oc(=O)c4[C@H](O)C3[C@@]2(C)CC[C@@H]1OC(C)=O (stereo partly drawn) [PRD 034, 7-p-biphenyl-4-carboxyl-7-deacetylpyripyropene A] |  | + (5 > specific activity > 1) | 0.1 to 1
9 | CC(=O)OCC1(C)C2C[C@H](OC(=O)c3ccccc3Cl)[C@@]3(C)Oc4cc(-c5cccnc5)oc(=O)c4[C@H](O)C3[C@@]2(C)CC[C@@H]1OC(C)=O (stereo partly drawn) [PRD 010, 7-o-chlorobenzoyl-7-deacetylpyripyropene A] |  | +++ (50 > specific activity > 10) | 0.01 to 0.1
10 | CC(=O)OCC1(C)C2C[C@H](OC(=O)c3ccc(O)cc3)[C@@]3(C)Oc4cc(-c5cccnc5)oc(=O)c4[C@H](O)C3[C@@]2(C)CC[C@@H]1OC(C)=O (stereo partly drawn) [PRD 031, 7-p-hydroxybenzoyl-7-deacetylpyripyropene A] |  | + (5 > specific activity > 1) | 0.1 to 1
11 | CC(=O)OCC1(C)C2C[C@H](OC(=O)c3cccc(Cl)c3)[C@@]3(C)Oc4cc(-c5cccnc5)oc(=O)c4[C@H](O)C3[C@@]2(C)CC[C@@H]1OC(C)=O (stereo partly drawn) [PRD 011, 7-m-chlorobenzoyl-7-deacetylpyripyropene A] |  | +++ (50 > specific activity > 10) | 0.01 to 0.1
12 | CC12COC(c3ccccc3)O[C@H]1CC[C@@]1(C)C2C[C@H](OC(=O)c2cccc(F)c2)[C@@]2(C)Oc3cc(-c4cccnc4)oc(=O)c3[C@H](O)C12 (stereo partly drawn) [PRD 047, 1,11-O-benzylidene-7-O-m-fluorobenzoyl-1,7,11-trideacetylpyripyropene A] |  | +++ (50 > specific activity > 10) | 0.01 to 0.1
13 | COCOCC(=O)O[C@H]1CC2C(C)(COC(C)=O)[C@@H](OC(C)=O)CC[C@]2(C)C2[C@@H](O)c3c(cc(-c4cccnc4)oc3=O)O[C@@]21C (stereo partly drawn) [PRD 106, 7-O-methoxymethoxyacetyl-7-deacetylpyripyropene A] | 0.1 to 1 | + (5 > specific activity > 1) | 
14 | CC(=O)OCC1(C)C2C[C@H](OC(=O)CCCCO)[C@@]3(C)Oc4cc(-c5cccnc5)oc(=O)c4[C@H](O)C3[C@@]2(C)CC[C@@H]1OC(C)=O (stereo partly drawn) [PRD 093, 7-O-5-hydroxypentanoyl-7-deacetylpyripyropene A] |  | + (5 > specific activity > 1) | 0.1 to 1
15 | CC(=O)OCC1(C)C2C[C@H](OC(=O)c3ccc(Br)cc3F)[C@@]3(C)Oc4cc(-c5cccnc5)oc(=O)c4[C@H](O)C3[C@@]2(C)CC[C@@H]1OC(C)=O (stereo partly drawn) [PRD 109, 7-O-p-bromo-o-fluorobenzoyl-7-deacetylpyripyropene A] |  | +++ (50 > specific activity > 10) | < 0.01
16 | CC(=O)OCC1(C)C2C[C@H](OC(=O)c3ccc(Br)c(F)c3)[C@@]3(C)Oc4cc(-c5cccnc5)oc(=O)c4[C@H](O)C3[C@@]2(C)CC[C@@H]1OC(C)=O (stereo partly drawn) [PRD 105, 7-O-p-bromo-m-fluorobenzoyl-7-deacetylpyripyropene A] |  | +++ (50 > specific activity > 10) | < 0.01
17 | CC(=O)OCC1(C)C2C[C@H](OC(=O)Cc3nnn[nH]3)[C@@]3(C)Oc4cc(-c5cccnc5)oc(=O)c4[C@H](O)C3[C@@]2(C)CC[C@@H]1OC(C)=O (stereo partly drawn) [PRD 102, 7-O-(1H-tetrazol-5-yl)acetyl-7-deacetylpyripyropene A] |  | + (5 > specific activity > 1) | 0.1 to 1
18 | CC(=O)OCC1(C)C2C[C@H](OC(=O)c3ccccc3F)[C@@]3(C)Oc4cc(-c5cccnc5)oc(=O)c4[C@H](O)C3[C@@]2(C)CC[C@@H]1OC(C)=O (stereo partly drawn) [PRD 028, 7-o-fluorobenzoyl-7-deacetylpyripyropene A] |  | +++ (50 > specific activity > 10) | 0.01 to 0.1
19 | CC12COC(c3ccccc3)O[C@H]1CC[C@@]1(C)C2C[C@H](OC(=O)c2cccc(C#N)c2)[C@@]2(C)Oc3cc(-c4cccnc4)oc(=O)c3[C@H](O)C12 (stereo partly drawn) [PRD 040, 1,11-O-benzylidene-7-O-m-cyanobenzoyl-1,7,11-trideacetylpyripyropene A] |  | +++ (50 > specific activity > 10) | 0.01 to 0.1
20 | COc1cccc(C(=O)O[C@H]2CC3C4(C)COC(c5ccccc5)O[C@H]4CC[C@]3(C)C3[C@@H](O)c4c(cc(-c5cccnc5)oc4=O)O[C@@]32C)c1 (stereo partly drawn) [PRD 043, 1,11-O-benzylidene-7-O-m-methoxybenzoyl-1,7,11-trideacetylpyripyropene A] |  | +++ (50 > specific activity > 10) | 0.01 to 0.1
21 | CC(=O)OCC1(C)C(OC(C)=O)CCC2(C)C1CC(OC(=O)c1ccccc1I)C1(C)Oc3cc(-c4cccnc4)oc(=O)c3C(O)C21 (stereo not drawn) [PRD 004, 7-o-iodobenzoyl-7-deacetylpyripyropene A] |  | +++ (50 > specific activity > 10) | 
22 | CC12COC(c3ccccc3)O[C@H]1CC[C@@]1(C)C2C[C@H](OC(=O)c2ccccc2F)[C@@]2(C)Oc3cc(-c4cccnc4)oc(=O)c3[C@H](O)C12 (stereo partly drawn) [PRD 046, 1,11-O-benzylidene-7-O-o-fluorobenzoyl-1,7,11-trideacetylpyripyropene A] |  | +++ (50 > specific activity > 10) | 0.01 to 0.1
